# Assays:
# HMGCR = target: T1, HMGCR (Cricetulus griseus, UniProt P00347); assay: Immunoblotting of HMGCR in SRD-15 (Insig-1 and Insig-2-deficient) cells; assay type: cell-based, Chinese hamster; settings: SRD-15 cells
# T1 construct: endogenous in cells; host or cells: CHO-7, CHG, SRD-13A, SRD-15
# T1 sequence (P00347 1-887): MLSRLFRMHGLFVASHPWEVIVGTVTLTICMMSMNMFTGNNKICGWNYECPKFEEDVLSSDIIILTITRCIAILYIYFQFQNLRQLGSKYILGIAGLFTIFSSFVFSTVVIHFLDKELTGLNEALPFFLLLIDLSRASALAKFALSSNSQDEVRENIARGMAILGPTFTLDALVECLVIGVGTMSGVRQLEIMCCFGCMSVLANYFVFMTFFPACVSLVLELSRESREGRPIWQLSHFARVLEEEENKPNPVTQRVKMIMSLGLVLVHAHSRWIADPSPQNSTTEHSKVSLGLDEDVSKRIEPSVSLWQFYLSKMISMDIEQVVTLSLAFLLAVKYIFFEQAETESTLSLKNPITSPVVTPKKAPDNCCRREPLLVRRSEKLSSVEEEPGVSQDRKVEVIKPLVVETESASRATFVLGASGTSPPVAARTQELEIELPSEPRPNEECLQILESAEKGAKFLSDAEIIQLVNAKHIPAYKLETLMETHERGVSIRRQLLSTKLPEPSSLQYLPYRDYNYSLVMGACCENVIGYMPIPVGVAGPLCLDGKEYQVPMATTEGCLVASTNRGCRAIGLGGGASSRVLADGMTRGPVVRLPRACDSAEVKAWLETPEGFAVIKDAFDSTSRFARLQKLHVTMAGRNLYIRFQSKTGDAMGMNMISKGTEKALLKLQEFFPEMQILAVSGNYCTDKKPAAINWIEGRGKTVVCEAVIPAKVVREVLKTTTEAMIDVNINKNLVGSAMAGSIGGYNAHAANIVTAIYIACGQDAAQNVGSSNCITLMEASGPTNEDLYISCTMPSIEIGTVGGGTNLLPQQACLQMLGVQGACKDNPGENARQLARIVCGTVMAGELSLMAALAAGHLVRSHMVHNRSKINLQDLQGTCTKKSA
# Experimental: CHO-7 (Chinese hamster ovary cell, a clone of CHO-K1 cell line selected for growth in LPDS) and Huh7 (a human hepatocellular carcinoma cell line), SRD-13A (a Scap-deficient CHO-7 cell line) and SRD-15 (an Insig-1 and Insig-2-deficient CHO-7 cell line) were generous gifts from Russell Debose-Boyd at UT Southwestern Medical Center, USA. All cells were grown in a monolayer at 37 °C with 5% CO2. Huh7 cells were maintained in medium A supplemented with 10% FBS. CHO-7 and SRD-15 cells were maintained in medium B supplemented with 5% FBS. SRD-13A cells were maintained in medium B with 5% FBS, 5 μg ml^−1 cholesterol, 1 mM sodium mevalonate, 10 μM sodium oleate. No cell lines used in this study were found in the database of commonly misidentified cell lines that is maintained by ICLAC and NCBI Biosample. […]
# Cells were harvested and homogenized in the RIPA buffer (50 mM Tris-HCl, pH 8.0, 150 mM NaCl, 2 mM MgCl2, 1.5% NP-40, 0.1% SDS, and 0.5% sodium deoxycholate) supplemented with protease cocktail inhibitor, 10 μM MG-132, 10 μg ml^−1 leupeptin and 1 mM phenylmethylsulfonyl fluoride. The protein concentrations of lysates were determined using BCA method (Beyotime). […] Western blot images were captured by Amersham Imager 600 (GE Healthcare), and integrated optical intensities of each band were quantified by Image-Pro Plus 6 software (Media Cybernetics). […]
# hERG potassium channel = hERG potassium channel (Homo sapiens, UniProt Q12809); assay: hERG electrophysiology patch-clamp assay (CHO-hERG cells, QPatch); settings: even at 40 μM
# Sequence of hERG potassium channel (Q12809 whole entry): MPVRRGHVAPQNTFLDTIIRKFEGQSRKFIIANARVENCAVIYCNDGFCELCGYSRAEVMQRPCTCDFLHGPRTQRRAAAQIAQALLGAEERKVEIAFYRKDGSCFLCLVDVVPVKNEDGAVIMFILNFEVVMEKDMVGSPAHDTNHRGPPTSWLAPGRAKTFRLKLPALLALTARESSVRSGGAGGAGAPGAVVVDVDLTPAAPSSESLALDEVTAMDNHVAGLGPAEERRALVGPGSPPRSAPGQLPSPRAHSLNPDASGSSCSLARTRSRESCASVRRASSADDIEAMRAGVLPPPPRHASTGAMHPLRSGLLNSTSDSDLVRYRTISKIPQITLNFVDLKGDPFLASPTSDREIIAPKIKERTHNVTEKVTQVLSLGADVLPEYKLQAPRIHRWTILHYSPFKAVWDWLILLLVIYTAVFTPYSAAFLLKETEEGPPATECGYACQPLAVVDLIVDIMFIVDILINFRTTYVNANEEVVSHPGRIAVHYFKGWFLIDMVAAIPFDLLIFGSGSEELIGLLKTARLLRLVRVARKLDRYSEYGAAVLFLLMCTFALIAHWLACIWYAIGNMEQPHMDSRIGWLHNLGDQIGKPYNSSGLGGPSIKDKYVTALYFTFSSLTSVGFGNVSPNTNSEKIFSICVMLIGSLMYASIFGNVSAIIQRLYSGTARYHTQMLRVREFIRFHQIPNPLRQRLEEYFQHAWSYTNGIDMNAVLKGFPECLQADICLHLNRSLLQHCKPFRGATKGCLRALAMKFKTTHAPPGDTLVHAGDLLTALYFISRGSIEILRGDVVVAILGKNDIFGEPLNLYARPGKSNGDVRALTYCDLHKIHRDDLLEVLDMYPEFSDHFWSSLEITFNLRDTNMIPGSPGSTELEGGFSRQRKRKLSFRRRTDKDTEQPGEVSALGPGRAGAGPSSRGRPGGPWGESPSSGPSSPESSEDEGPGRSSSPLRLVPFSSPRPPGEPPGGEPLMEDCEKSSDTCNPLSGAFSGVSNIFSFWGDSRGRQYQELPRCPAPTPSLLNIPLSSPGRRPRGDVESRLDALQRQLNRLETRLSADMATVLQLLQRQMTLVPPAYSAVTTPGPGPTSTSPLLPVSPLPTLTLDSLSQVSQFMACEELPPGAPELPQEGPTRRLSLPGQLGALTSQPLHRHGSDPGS
# WT HMGCR = target: T2, WT HMGCR (Cricetulus griseus, UniProt P00347); assay: Immunoblotting of overexpressed wild type HMGCR in Huh7 cells; assay type: cell-based; settings: 1 µM lovastatin
# T2 construct: expressed in transfected cells; host or cells: Huh7
# T2 sequence (P00347 1-887): T1 sequence (P00347 1-887)
# Experimental: Cells were harvested and homogenized in the RIPA buffer (50 mM Tris-HCl, pH 8.0, 150 mM NaCl, 2 mM MgCl2, 1.5% NP-40, 0.1% SDS, and 0.5% sodium deoxycholate) supplemented with protease cocktail inhibitor, 10 μM MG-132, 10 μg ml^−1 leupeptin and 1 mM phenylmethylsulfonyl fluoride. The protein concentrations of lysates were determined using BCA method (Beyotime). Samples were mixed with the membrane protein solubilization buffer (62.5 mM Tris-HCl, pH 6.8, 15% SDS, 8 M urea, 10% glycerol, and 100 mM DTT) plus the 4× loading buffer (150 mM Tris-HCl, pH 6.8, 12% SDS, 30% glycerol, 6% 2-mercaptoethanol, and 0.02% bromophenol blue) and incubated for 30 min at 37 °C. Proteins were resolved by SDS-PAGE and transferred to nitrocellulose membranes (GE Healthcare). Immnoblots were blocked with 5% non-fat milk in TBS containing 0.075% Tween-20 (TBST) and probed with indicated antibodies overnight at 4 °C. After washing in TBST for five times, blots were incubated with HRP-conjugated secondary antibodies for 2 h at room temperature. Immunoreactivity was developed with Clarity Western ECL chemiluminescent substrates (170–5061, Bio-Rad). Western blot images were captured by Amersham Imager 600 (GE Healthcare), and integrated optical intensities of each band were quantified by Image-Pro Plus 6 software (Media Cybernetics). […]
# RT-qPCR. Quantifications of the relative mRNA levels of indicated SREBP target […]
# Hmgcr mRNA [1] = assay: RT-qPCR of Hmgcr mRNA in CHO-7 cells; assay type: cell-based, Chinese hamster; settings: DMSO = 1; for HMGCR mRNA level, mean: 16 h
# Experimental: (§1) Cells were treated as described in corresponding figure legends, then total RNA was extracted from cells or mouse livers using TRI Reagent (T9424, Sigma-Aldrich). Equal amounts of RNA from cells or mice receiving the same treatment were pooled were used for cDNA synthesis with oligo dT and reverse transcriptase MLV (Promega). Gene expression was analyzed by quantitative real-time PCR on a Stratagene Mx30005PTM Q-PCR Systems. The primers used were listed in Supplementary Tables 2–4.
# Hmgcr mRNA [2] = assay: RT-qPCR of Hmgcr mRNA in SRD-13A cells; assay type: cell-based, Chinese hamster; design: HMGCR mRNA level, mean: scale not given here; settings: for HMGCR mRNA level, mean: SRD-13A, 16 h
# Experimental: as §1
smiles,measurement,setting,value
C=CCC(O)(CC=C)CCCC(C)C1CCC2C3C(O)C=C4C(C)(C)C(O)CCC4(C)C3CCC12C (centres unmarked) [Cmpd 81],Cmpd 81-induced disappearance of endogenous HMGCR in cells lacking Insig-1 and Insig-2,HMGCR,completely abolished
same,inhibition of hERG peak tail currents,hERG potassium channel,no inhibition effect
"CC[C@H](C)C(=O)O[C@H]1C[C@@H](C)C=C2C=C[C@H](C)[C@H](CC[C@@H]3C[C@@H](O)CC(=O)O3)[C@H]21 [Lovastatin, lovastatin]",elevation of overexpressed WT HMGCR protein,WT HMGCR,6 fold
same,"HMGCR mRNA level, mean","Hmgcr mRNA [1]; CHO-7, lovastatin 0.001 uM",1.196
same,"HMGCR mRNA level, mean","Hmgcr mRNA [1]; CHO-7, lovastatin 0.003 uM",1.51
same,"HMGCR mRNA level, mean","Hmgcr mRNA [1]; CHO-7, lovastatin 0.01 uM",1.897
same,"HMGCR mRNA level, mean","Hmgcr mRNA [1]; CHO-7, lovastatin 0.03 uM",2.523
same,"HMGCR mRNA level, mean","Hmgcr mRNA [1]; CHO-7, lovastatin 0.1 uM",2.959
same,"HMGCR mRNA level, mean","Hmgcr mRNA [1]; CHO-7, lovastatin 0.3 uM",3.447
same,"HMGCR mRNA level, mean","Hmgcr mRNA [1]; CHO-7, lovastatin 1 uM",3.688
same,"HMGCR mRNA level, mean","Hmgcr mRNA [1]; CHO-7, lovastatin 3 uM",3.602
same,"HMGCR mRNA level, mean","Hmgcr mRNA [1]; CHO-7, lovastatin 10 uM",3.663
same,increase of Hmgcr mRNA abundance,"Hmgcr mRNA [1]; CHO-7 cells, statin 16 h (lovastatin up to 10 μM)",3.6 fold
same,change in the amounts of Hmgcr mRNA,"Hmgcr mRNA [2]; SRD-13A cells, lovastatin 16 h",no change
same,"HMGCR mRNA level, mean",Hmgcr mRNA [2]; lovastatin 0.001 uM,1
same,"HMGCR mRNA level, mean",Hmgcr mRNA [2]; lovastatin 0.003 uM,1.03
same,"HMGCR mRNA level, mean",Hmgcr mRNA [2]; lovastatin 0.01 uM,1.0471
same,"HMGCR mRNA level, mean",Hmgcr mRNA [2]; lovastatin 0.03 uM,1.185
same,"HMGCR mRNA level, mean",Hmgcr mRNA [2]; lovastatin 0.1 uM,1.052
same,"HMGCR mRNA level, mean",Hmgcr mRNA [2]; lovastatin 0.3 uM,0.9958
same,"HMGCR mRNA level, mean",Hmgcr mRNA [2]; lovastatin 1 uM,1.197
same,"HMGCR mRNA level, mean",Hmgcr mRNA [2]; lovastatin 3 uM,1.009
same,"HMGCR mRNA level, mean",Hmgcr mRNA [2]; lovastatin 10 uM,1.04
